Consider 8 molecules from patent publication US20030059797A1, “Animal model of and test for Alzheimer's disease” (priority 1999, published 2003).

Data set [1] relates to tryptamine binding site. Particulars: cited from earlier work; for binding to tryptamine site (in words): human cortical membrane preparation, Mousseau & Butterworth 1994.
Data set [2] has as its system neuronal cell lines. Particulars: Tanaka et al. 1998; cited from earlier work.
Data set [3] has as its system mice. The data set is described as follows: Stability (balance) on narrow 1-cm stick. In kind it is in vivo. The protocol:
FIG. 7 is a set of tables and graphs showing measurements of the treated mice's behavior. The control and tryptamine-treated model mice were put on a narrow 1-cm diameter metallic stick. The time that mice balanced on the stick was measured in seconds. 66% of control versus 10% of treated mice kept on the stick for more than 6 seconds in the first experiment and 66% of control versus 20% of treated were for more than 13 seconds in the second experiment. Thus, the model mice were 6.6 times less balanced or coordinated than control.
FIG. 7 is a set of tables and graphs showing measurements of the treated mice's stability The control and tryptamine-treated model mice were put on a narrow 1 cm diameter metallic stick. The time of their presence on the stick was measured in seconds. […] Thus, the model mice are 6.6 times less balanced than control.

The test system of data set [4] is mice. Put plainly: Running on a narrow stick, tryptamine-treated mice. In kind it is in vivo. Particulars: individual mouse. The protocol: (§1) An Alzheimer's disease mouse model was obtained by using intravenous injections of male mice at 8 weeks or age- and sex-matched mice with 1-500 micrograms of tryptamine every second day for at least 2.5 weeks. In one embodiment, mice are injected with 50 micrograms of tryptamine for 4 months. However, the duration of treatment, intervals between injections and concentrations of tryptamine can be successfully varied. Control mice are injected with phosphate-buffered saline.
Behavioral tests with control and tryptamine-treated mice. Behavioral assays with control and tryptamine-treated mice included tests for movement or coordination, sense of balance, orientation, and loss of interest. The behavioral tests in which the tryptamine-treated mice were tested included (a) a test of stable sitting (following 3 months of treatment), and (b) a test of running on a narrow stick (following 3, 4 and 6 months of the treatment). […] As shown in the testing this behavior of mice is age-dependent. […] The data obtained regarding behavior of the control and tryptamine-treated mice are in good agreement with later signs of Alzheimer's disease compared with normal signs of aging (Source: Alzheimer's Disease: early warning signs and diagnostic resources. The Junior League of NYC, Inc, 1988).
The model mice were made to run on a white metallic 80 cm stick having a diameter of 1 cm stick and placed 30 cm over the surface of a platform. Data in TABLE I are: (a) lag time (time that the mice were sitting at one end of the stick before beginning to run); (b) run time; and (c) the % of the stick that the mice successfully completed.

Data set [5] relates to human neuroblastoma SH SY5Y cell line. The data set is described as follows: Cultivation of SH SY5Y cells with TrpRS inhibitors. In kind it is cell-based. Particulars: for cell survival after cultivation with inhibitor: 50-100 μg/ml, 5 days, initial density 1×10^3 on 10-cm dishes. The protocol:
The involvement of TrpRS inhibitors in neurofibrillary tangles formation was tested in the human neuroblastoma SH SY5Y cell line expressing tau. Tanaka et al., FEBS Lett. 426: 248-254 (1998). This cloned line comprises two morphologically distinct cell types: predominantly neuroblastic (bearing short neurites) and epithelial-like (lacking neurites). Biedler et al., Cancer Res. 33: 2643-2652 (1973). SH SY5Y cells were grown in 25 cm^2 flasks (TPP, Switzerland) in 5% CO2 at 37° C. in RPMI 1640 medium supplemented with 10% fetal calf serum, 100 u/ml penicillin, 100 μg/ml streptomycin, 0.25 μg/ml amphoterycin and 2 mM glutamine. The neuron/axon lines were isolated after seeding microscopically verified single […] cells.
Continuous treatment with lower concentrations of the inhibitors led to accumulation of large flattened, tightly substrate adherent epithelial-like cells lacking neurites, while the majority of neuroblasts died.
TrpRS was mainly localized in axons and to a less extent in the neuronal body and dendrites (wrs, FIG. 1e). […] In some sublines, however no neuroblasts were observed during 12 months cultivation without inhibitors (low panel, FIG. 1f).

For data set [6], the system named is mice. The data set is described as follows: Observation of health and behavior of tryptamine-treated mice. In kind it is in vivo. The protocol:
as §1
The tryptamine-treated mice appear to be healthy in comparison to the control mice. The treated mice are clean and fat.

Data set [7] relates to SH SY5Y cells. The data set is described as follows: Tryptamine treatment of epithelial-enriched and neuron-axon SH SY5Y cells, staining and electron microscopy. In kind it is cell-based, human. Particulars: 20-100 μg/ml tryptamine for 6-60 days, electron microscopy. The protocol:
To examine control epithelial cells, which were not pretreated with inhibitors, neuroblastic and epithelial-enriched cells were separated from one another by exploiting a marked difference in adhesive properties. Biedler et al., Cancer Res. 33: 2643-2652 (1973). The weakly adherent neuroblasts were washed out with trypsin. The selected epithelial-enriched and tryptamine-differentiated neuron-axon cells were treated with 20-100 μg/ml tryptamine for 6-60 days and then stained. […] (Mouse anti-human PHF-tau, clone AT8 against epitope containing phosphorylated Ser202 was obtained from Innogenetics (Ghent, Belgium).)
To test whether TrpRS and tau co-localize in neurofibrillary tangles, fluorescent double labeling with AT8 and anti-TrpRS was performed. In acute-treated cells, the proteins were co-localized both in I-NFT-like encircled nuclei (FIG. 2e, f, i, and j) and E-NFT-like manifestations (FIG. 2g). In the perikarya of the control pretreated or untreated epithelial cells, few if any such formations were labeled (FIG. 2h and FIG. 2k). The staining is specific. The staining was absent in the control specimens probed with secondary antibodies (FIG. 2l).
To test whether tryptamine-induced manifestations are associated with neurofilaments, the cells were prepared either as a suspension (FIG. 2m) or as a monolayer and then analyzed by electron microscopy. […]

Data set [8] relates to mice. The data set is described as follows: Brain histology of tryptamine-treated mice (Congo Red, Gallyas silver staining). In kind it is in vivo. Particulars: intravenous, every second day, at least 2.5 weeks of treatment. The protocol:
as §1
Immunochemical assays with control and tryptamine-treated mice. Following tryptamine treatment, the brains of the treated model mice and the control untreated mice were routinely fixed; sectioned, stained and analyzed microscopically, using commonly used well-established methods. The mouse brains were examined for Alzheimer's-like manifestations.
These manifestations were not found in the control mice.
FIG. 5 is a set of micrographs showing Congo Red staining and birefringence of sagittal sections from brains of tryptamine-treated mice. […] FIG. 6 is a set of micrographs showing silver staining of Alzheimer's neurofibrillary changes in the brain sections of tryptamine-treated mice.

The test system of data set [9] is TrpRS. Put plainly: Western blot of TrpRS in detergent-insoluble fraction of treated cells. In kind it is cell-based, human. Particulars: 6C10/C9 blot. The protocol: The involvement of tau and TrpRS in tryptamine-induced phenotypes was tested in extracts of control and treated cells. Triton extraction was performed as follows: Cells were lysed in 0.1 M Hepes buffer, pH 6.9, 0.5% Triton X100, 1 mM MgCl2, 0.1 mM EDTA, 2 mM EGTA, 1 mM DTT, 1 mM PMSF, 0.4 mg/ml aprotinin, 0.1 mg/ml antipain, leupeptin, pepstatin, and hemastatin, 0.1 μM okadaic acid, 10 mM sodium ortovanadate, and 50 mM sodium fluoride for 20 min in situ at room temperature. The detergent-insoluble fraction was collected with scraper and washed in the same buffer excluding inhibitors of phosphatases. The detergent-insoluble fraction was then solubilized in SDS-sample buffer at 100° C. for 5 min, and spun. […]
In the Western blot, both human recombinant ˜54 kDa and bovine ˜60 and ˜40-42 kDa (well-characterized proteolytic fragments) TrpRS reacted with 6C10/C9 and polyclonal antibodies (FIG. 3b), while poorly with 9D7. The main form and an additional high molecular weight TrpRS were induced in detergent-insoluble cytoskeleton by tryptamine treatment (right panel, FIG. 3c), whereas no difference was detected between acute-treated and pretreated cells (left and middle panels, FIG. 3c) when total extracts were analyzed. In the cytoskeleton of both treated and control cells, TrpRS was detected at a lower molecular weight than the cytoplasmic TrpRS (FIG. 3c). […]

Structures are written as SMILES. “And” between values parts separate entries of the source, which are not always exact repeats. Equal values may be shown once.

For `C#CCN(C)[C@H](C)Cc1ccccc1` [deprenyl], in data set [1], the “binding to tryptamine site (in words)” value is on record as “higher affinity for the (+)-stereo isomer compared with (−)-isomer”.
As for `N[C@@H](Cc1c[nH]c2ccccc12)C(=O)O` [tryptophan], the “binding to tryptamine site (in words)” value in data set [1] is on record as “dramatically lower binding to trypatmine site than tryptamine”.
As to `COc1ccc2[nH]cc(CCN)c2c1` [5-methoxytryptamine], in data set [1], the “binding to tryptamine site (in words)” value is “higher binding to tryptamine site compared with 5-hydroxytryptamine”.
Regarding `C=C1[C@@H](O)[C@@H]2O[C@]3(CC[C@H](/C=C/[C@@H](C)[C@@H]4CC(C)=C[C@@]5(O[C@H](C[C@@](C)(O)C(=O)O)CC[C@H]5O)O4)O3)CC[C@H]2O[C@@H]1[C@@H](O)C[C@H](C)[C@H]1O[C@@]2(CCCCO2)CC[C@H]1C` [okadaic acid], the “effect on tau and neurofibrillary tangles” value in data set [2] is reported as “results only in tau hyperphosphorylation, but not neurofibrillary tangles”.
`CC(N)Cc1ccccc1` (stereo not shown) [amphetamine]: the “binding to tryptamine site (in words)” value in [1] is “higher affinity for the (+)-stereo isomer compared with (−)-isomer”.
In the case of `NCCc1c[nH]c2ccccc12` [tryptamine], the “% of treated mice kept on the stick for more than 6 seconds” value in [3] (first experiment, control 66%) is reported as 10%. Further, in data set [3] (second experiment, control 66%), the “% of treated mice kept on the stick for more than 13 seconds” value is listed as 20%. For the same molecule, in data set [3] (treated versus control mice), the “times less balanced than control” value is 6.6 times. Moreover, the Run time in [4] (80 cm stick, 1 cm diameter) is 2 seconds and 0 seconds (7×) and 10 seconds and 17 seconds. For the same molecule, the Lag time in [4] (80 cm stick, 1 cm diameter, time sitting at one end before beginning to run) is 50 seconds and 47 seconds and 11 seconds and 17 seconds and 13 seconds and 40 seconds and 3 seconds (2×) and 9 seconds and 15 seconds. In addition, the “% of the way” value in data set [4] (% of the stick successfully completed) is 40% and 0% (7×) and 20% and 50%. In addition, the “cell survival after cultivation with inhibitor” value in [5] is on record as “all cells have died”. Besides, the “relative toxicity for neuroblasts and epithelial cells” value in [5] (SH SY5Y) was “more toxic for neuroblasts than for epithelial cells”. Besides, the “neurodifferentiation of epithelial cells” value in [5] (continuous treatment with lower concentrations, then cultivation without inhibitors) is given as “induces neurodifferentiation of the epithelial cells”. Moreover, the toxic effect entry in [6] (four months of treatment) was “do not show any toxic effect”. Besides, the aggressive behavior result in [6] (in contrast to control mice) was “do not show aggressive behavior”. Moreover, in data set [1], the “binding to tryptamine site (in words)” value is listed as “most potent inhibitor”. Moreover, in data set [7], the “neurofibrillary tangles in treated cells” value was “numerous neurofibrillary tangles were found”. The “Alzheimer's-like manifestations in brain sections” value in data set [8] was “Senile plaques, neurofibrillary tangles, and neuropil threads and fibrils were detected”. The “expression of cytoskeleton TrpRS forms” value in data set [9] is reported as “induces high expression of cytoskeleton TrpRS forms”.
`NCCc1c[nH]c2ccc(O)cc12` [5-hydroxytryptamine]: the “lower binding to tryptamine site than tryptamine” value in data set [1] (relative to tryptamine) was more than 100.
As for `N[C@H](CO)Cc1c[nH]c2ccccc12` [tryptophanol], the “cell survival after cultivation with inhibitor” value in data set [5] is on record as “all cells have died”.
